Assay results reported in ChEMBL document CHEMBL5360600, “Optimization of 1,2,4-Triazole-Based p97 Inhibitors for the Treatment of Cancer” (ACS Med Chem Lett, 2023).
Converted amounts (≈) assume the structure as drawn. The source made the active and inactive calls. The calls are words filed in the database; no cut-off is given here.

What was measured:
[1] = target: T1, Transitional endoplasmic reticulum ATPase (Homo sapiens, UniProt P55072); test: Inhibition of p97 (unknown origin) ATPase activity by Biomol Green Reagent based microplate reader analysis
Target sequence in this assay (P55072 whole entry): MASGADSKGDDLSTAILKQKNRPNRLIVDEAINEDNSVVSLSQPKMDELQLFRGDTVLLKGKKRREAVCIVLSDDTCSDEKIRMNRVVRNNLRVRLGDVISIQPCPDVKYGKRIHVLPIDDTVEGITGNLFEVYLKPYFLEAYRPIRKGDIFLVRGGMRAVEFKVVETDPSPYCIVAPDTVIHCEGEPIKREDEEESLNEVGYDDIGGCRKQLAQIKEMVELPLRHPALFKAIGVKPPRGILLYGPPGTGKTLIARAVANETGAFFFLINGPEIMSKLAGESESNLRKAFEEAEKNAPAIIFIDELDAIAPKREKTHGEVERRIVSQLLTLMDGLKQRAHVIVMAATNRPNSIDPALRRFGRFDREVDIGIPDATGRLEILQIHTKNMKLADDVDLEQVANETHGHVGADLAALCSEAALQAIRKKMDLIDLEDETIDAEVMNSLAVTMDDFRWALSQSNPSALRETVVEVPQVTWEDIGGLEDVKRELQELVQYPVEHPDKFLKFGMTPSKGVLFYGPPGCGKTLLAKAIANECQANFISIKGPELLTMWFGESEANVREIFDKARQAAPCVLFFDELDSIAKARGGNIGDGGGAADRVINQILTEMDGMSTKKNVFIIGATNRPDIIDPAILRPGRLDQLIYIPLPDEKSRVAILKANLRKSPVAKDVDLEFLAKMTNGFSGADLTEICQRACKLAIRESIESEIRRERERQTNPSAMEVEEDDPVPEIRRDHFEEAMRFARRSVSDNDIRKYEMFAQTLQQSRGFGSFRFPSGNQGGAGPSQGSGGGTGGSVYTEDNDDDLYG

[2] = Solubility of compound at pH 7.4 in PBS by UV/visible spectrophotometer analysis; assay type: physicochemical
[3] = Metabolic stability in mouse liver microsome assessed as half life at 1 uM incubated upto 45 mins in presence of NADPH-regenerating system by LC-MS analysis; assay type: ADME; details: liver microsomes
[4] = target: T1, Transitional endoplasmic reticulum ATPase; test: Inhibition of p97 in human HeLa cells expressing UbG76V-GFP/ODD-Luc assessed as accumulation of Ub-GFP incubated for 6 hrs by confocal microscopic analysis; assay type: cell-based
Target sequence in this assay (P55072 whole entry): as above

[5] = test system: HCT-116; test: Cytotoxicity against human HCT-116 cells assessed as reduction in cell viability incubated for 48 hrs by celltiter glo-luminescent assay; assay type: functional, cell-based; details: HCT-116, 48 h
[6] = Solubility of compound in PBS incubated for 30 minutes by clear-bottomed UV analysis; assay type: physicochemical
[7] = target: T1, Transitional endoplasmic reticulum ATPase; test: Inhibition of p97 in human HCT-116 cells assessed as increase in Ub-K48 level at 100 nM incubated for 6 hrs by quantitative sandwich immunoassay method relative to control; assay type: cell-based
Target sequence in this assay (P55072 2-806 limits assumed): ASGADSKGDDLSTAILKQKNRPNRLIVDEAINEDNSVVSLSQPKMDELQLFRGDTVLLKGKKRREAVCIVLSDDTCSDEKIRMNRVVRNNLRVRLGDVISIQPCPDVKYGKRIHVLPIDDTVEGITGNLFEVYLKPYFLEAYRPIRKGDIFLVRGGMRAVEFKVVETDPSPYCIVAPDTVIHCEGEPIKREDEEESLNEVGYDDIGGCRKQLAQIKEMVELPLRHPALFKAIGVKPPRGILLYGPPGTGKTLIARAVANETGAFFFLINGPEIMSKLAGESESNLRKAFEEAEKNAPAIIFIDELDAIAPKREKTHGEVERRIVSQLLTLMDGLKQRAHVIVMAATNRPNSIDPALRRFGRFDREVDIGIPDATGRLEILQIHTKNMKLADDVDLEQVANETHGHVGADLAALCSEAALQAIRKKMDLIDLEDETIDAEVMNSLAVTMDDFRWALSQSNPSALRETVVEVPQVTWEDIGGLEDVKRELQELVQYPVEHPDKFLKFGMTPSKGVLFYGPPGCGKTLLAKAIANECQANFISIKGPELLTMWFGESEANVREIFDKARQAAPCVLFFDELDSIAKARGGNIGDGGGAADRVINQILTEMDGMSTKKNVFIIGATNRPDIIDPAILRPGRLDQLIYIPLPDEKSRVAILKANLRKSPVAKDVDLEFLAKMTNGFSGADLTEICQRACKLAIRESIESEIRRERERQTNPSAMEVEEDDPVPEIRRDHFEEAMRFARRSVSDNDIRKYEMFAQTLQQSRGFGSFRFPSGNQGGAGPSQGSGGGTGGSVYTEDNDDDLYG

[8] = Half life in CD-1 mouse at 5 mg/kg, iv incubated upto 24 hrs by LC-MS/MS analysis; assay type: ADME, organism-based; details: in vivo
[9] = Oral bioavailability in CD-1 mouse at 50 mg/kg incubated upto 24 hrs by LC-MS/MS analysis; assay type: ADME, organism-based; details: in vivo
[10] = Cmax in CD-1 mouse at 50 mg/kg, ip incubated upto 24 hrs by LC-MS/MS analysis; assay type: ADME, organism-based; parameters: time < 24 hrs, dose 50 mg/kg, route ip; details: in vivo
[11] = Clearance in CD-1 mouse at 5 mg/kg, iv incubated upto 24 hrs by LC-MS/MS analysis; assay type: ADME, organism-based; details: in vivo
[12] = Volume of distribution at steady state in CD-1 mouse at 5 mg/kg, iv incubated upto 24 hrs by LC-MS/MS analysis; assay type: ADME, organism-based; details: in vivo, read-out: Vdss
[13] = Half life in CD-1 mouse at 50 mg/kg, po incubated upto 24 hrs by LC-MS/MS analysis; assay type: ADME, organism-based; details: in vivo
[14] = Cmax in CD-1 mouse at 50 mg/kg, po incubated upto 24 hrs by LC-MS/MS analysis; assay type: ADME, organism-based; parameters: dose 50 mg/kg, time < 24 hrs, route po; details: in vivo
[15] = target: T1, Transitional endoplasmic reticulum ATPase; test: Inhibition of p97 in human HCT-116 cells assessed as increase in caspase-3 level at 0.04 to 6 uM pretreated for 2 hrs followed by washout and measured after 6 to 24 hrs by quantitative sandwich immunoassay method; assay type: cell-based; details: dose 0.04-6 µM
Target sequence in this assay (P55072 2-806 limits assumed): as above

[16] = Half life in CD-1 mouse at 50 mg/kg, ip incubated upto 24 hrs by LC-MS/MS analysis; assay type: ADME, organism-based; details: in vivo
[17] = target: T1, Transitional endoplasmic reticulum ATPase; test: Inhibition of p97 in human HCT-116 cells assessed as increase in caspase-3 level at 1 uM incubated for 24 hrs by quantitative sandwich immunoassay method relative to control; assay type: cell-based
Target sequence in this assay (P55072 2-806 limits assumed): as above

[18] = AUClast in CD-1 mouse at 5 mg/kg, iv incubated upto 24 hrs by LC-MS/MS analysis; assay type: ADME, organism-based; parameters: dose 5 mg/kg, time < 24 hrs, route iv; details: in vivo
[19] = AUClast in CD-1 mouse at 50 mg/kg, ip incubated upto 24 hrs by LC-MS/MS analysis; assay type: ADME, organism-based; parameters: time < 24 hrs, dose 50 mg/kg, route ip; details: in vivo
[20] = AUClast in CD-1 mouse at 50 mg/kg, po incubated upto 24 hrs by LC-MS/MS analysis; assay type: ADME, organism-based; parameters: time < 24 hrs, dose 50 mg/kg, route po; details: in vivo

Row | SMILES | IC50 [1] [nM] | half-life at […], 1 µM [3] [min] | EC50 [4] [nM] | solubility at 0.5 h [6] [µM] | IC50 [5] [nM] | further results
1 | Cc1cc(OCc2nnc(SC3C=CCCC3)n2-c2cccnc2)ccc1C#CCOC(=O)NC1CCN(C)CC1 (centres undefined) | 23 | 7 | 820 | 61 (≈ 34.9 µg/mL) | 2100 | solubility [2]: 61 µM (≈ 34.9 µg/mL)
2 | Cc1cc(OCc2nnc(SC3C=CCCC3)n2-c2cccnc2)ccc1C#CCOC(=O)N1CCN(C)CC1 (centres undefined) | 29 | < 10 | 1800 | – | 2400 | –
3 | Cc1cc(OCc2nnc(SC3C=CCCC3)n2-c2cccnc2)ccc1C#CCNC(=O)OC(C)(C)C (centres undefined) | 150 | 7 | 11000 | 92 (≈ 48.9 µg/mL) | – | –
4 | CN1CCC(NC(=O)OCC#Cc2ccc(OCc3nnc(SC4C=CCCC4)n3-c3cccnc3)c(F)c2F)CC1 (centres undefined) | – | 8 | 1300 | – | 3200 | solubility [2]: 54 µM (≈ 32.1 µg/mL)
5 | CN1CCC(NC(=O)OCC#Cc2cc(F)c(OCc3nnc(SC4C=CCCC4)n3-c3cccnc3)cc2F)CC1 (centres undefined) | – | 3 | – | – | 850 | solubility [2]: 71 µM (≈ 42.2 µg/mL); inhibition [7]: 133%
6 | CCC(=O)NCC#Cc1ccc(OCc2nnc(SC3C=CCCC3)n2-c2cccnc2)cc1C (centres undefined) | 32 | – | 1900 | – | – | –
7 | Cc1cc(OCc2nnc(SC3C=CCCC3)n2-c2cccnc2)ccc1C#CCOC(=O)NCCN1CCN(C)CC1 (centres undefined) | 21 | 8 | 890 | – | 2800 | –
8 | [2H]C1([2H])C([2H])([2H])C([2H])([2H])C([2H])(Sc2nnc(COc3cc(F)c(C#CCOC(=O)NC4CCN(C)CC4)cc3F)n2-c2cccnc2)C1([2H])[2H] | 9.7 | 8 | 640 | – | 1370 | solubility [2]: 83 µM (≈ 49.1 µg/mL)
9 | Cc1cc(OCc2nnc(SC3C=CCCC3)n2-c2cccnc2)ccc1C#CCNS(=O)(=O)c1ccc(F)cc1 (centres undefined) | – | 9 | > 40000 | 24 (≈ 14.2 µg/mL) | – | –
10 | CN1CCC(NC(=O)OCC#Cc2c(F)cc(OCc3nnc(SC4C=CCCC4)n3-c3cccnc3)cc2F)CC1 (centres undefined) | 11 | – | 360 | – | 730 | inhibition [7]: 123%
11 | Cc1cc(OCc2nnc(SC3C=CCCC3)n2-c2cccnc2)ccc1C#CCNC1CCN(C)CC1 (centres undefined) | 41 | 8 | 1500 | 130 (≈ 68.7 µg/mL) | – | –
12 | Cc1cc(OCc2nnc(SC3C=CCCC3)n2-c2cccnc2)ccc1C#CCO (centres undefined) | 40 | 1.2 | 1300 | 39 (≈ 16.9 µg/mL) | 4700 | solubility [2]: 39 µM (≈ 16.9 µg/mL)
13 | Cc1cc(OCc2nnc(SC3C=CCCC3)n2-c2cccnc2)ccc1C#CCNC(C)C (centres undefined) | – | 8 | 2700 | – | – | –
14 | CN1CCN(CCNC(=O)OCC#Cc2ccc(OCc3nnc(SC4C=CCCC4)n3-c3cccnc3)cc2F)CC1 (centres undefined) | – | 4 | 820 | – | 1350 | solubility [2]: 60 µM (≈ 36.3 µg/mL)
15 | Cc1cc(OCc2nnc(SC3C=CCCC3)n2-c2cccnc2)ccc1C#CCNS(C)(=O)=O (centres undefined) | – | 7 | 2700 | – | – | –
16 | CN1CCC(NC(=O)OCC#Cc2cc(F)c(OCc3nnc(S[C@@H]4C=CCCC4)n3-c3cccnc3)cc2F)CC1 | – | – | – | – | 4740 | –
17 | CN1CCC(NC(=O)OCC#Cc2cc(F)c(OCc3nnc(S[C@H]4C=CCCC4)n3-c3cccnc3)cc2F)CC1 | – | 5 | – | – | 340 | half-life [8]: 41.4 min; bioavailability [9]: 17%; Cmax [10]: 12700 ng/mL; solubility [2]: 74 µM (≈ 44 µg/mL); clearance [11]: 234 mL/min/kg; Vd [12]: 5.9 L/kg; half-life [13]: 126 min; Cmax [14]: 366 ng/mL; inhibition [15]: Active; half-life [16]: 96 min; inhibition [17]: Active; AUC(0-t) at 24 h [18]: 371 ng·h/mL; AUC(0-t) at 24 h [19]: 9290 ng·h/mL; AUC(0-t) at 24 h [20]: 601 ng·h/mL
18 | Cc1cc(OCc2nnc(SC3C=CCCC3)n2-c2cccnc2)ccc1C#CCN (centres undefined) | – | 24 | 4500 | 53 (≈ 22.9 µg/mL) | – | –

More lines, main results first:

Row | IC50 [1] [nM] | half-life at […], 1 µM [3] [min] | EC50 [4] [nM] | solubility at 0.5 h [6] [µM] | SMILES | IC50 [5] [nM] | further results
19 | > 6000 | > 60 | > 40000 | 370 (≈ 198 µg/mL) | Cc1cc(OCc2nnc(SC3CCNCC3)n2-c2cccnc2)ccc1-c1ccc(S(C)(=O)=O)cc1 | – | –
20 | 460 | < 10 | 47000 | 150 (≈ 80.5 µg/mL) | Cc1cc(OCc2nnc(SC3CCOCC3)n2-c2cccnc2)ccc1-c1ccc(S(C)(=O)=O)cc1 | – | –
21 | 2010 | 13 | > 40000 | 260 (≈ 133 µg/mL) | COCCSc1nnc(COc2ccc(-c3ccc(S(C)(=O)=O)cc3)c(C)c2)n1-c1cccnc1 | – | –
22 | 34 | < 10 | 940 | 140 (≈ 74.6 µg/mL) | Cc1cc(OCc2nnc(SC3C=CCCC3)n2-c2cccnc2)ccc1-c1ccc(S(C)(=O)=O)cc1 (centres undefined) | – | –
23 | – | 9 | – | – | Cc1cc(OCc2nnc(SC3CCCC3)n2-c2cccnc2)ccc1-c1ccc(S(C)(=O)=O)cc1 | – | –
24 | – | 6 | – | 29 (≈ 15.4 µg/mL) | [2H]C1([2H])C([2H])([2H])C([2H])([2H])C([2H])(Sc2nnc(COc3ccc(-c4ccc(S(C)(=O)=O)cc4)c(C)c3)n2-c2cccnc2)C1([2H])[2H] | – | –
25 | 320 | 13 | > 40000 | 9 (≈ 4.96 µg/mL) | Cc1cc(OCc2nnc(SC3CCCC=C3F)n2-c2cccnc2)ccc1-c1ccc(S(C)(=O)=O)cc1 (centres undefined) | – | –
26 | 60 | 8 | 2400 | 170 (≈ 90.9 µg/mL) | Cc1cc(OCc2nnc(SC3CCCCC3)n2-c2cccnc2)ccc1-c1ccc(S(C)(=O)=O)cc1 | – | –
27 | 300 | < 10 | > 40000 | 110 (≈ 62.8 µg/mL) | Cc1cc(OCc2nnc(SC3CCC(F)(F)CC3)n2-c2cccnc2)ccc1-c1ccc(S(C)(=O)=O)cc1 | – | –
